PubChem BioAssay AID2060607 (Molecular Pharmacology Branch, DTP, NCI, 2025)
pIC50: −log10 of the molar value.

Tested on: 876862-298-R-J1-PDC complex spheroids, viability % test/control
Assay: Anticancer human tumor 876862-298-R-J1-PDC patient-derived endometrial carcinoma cell line growth inhibition [CLK]
Settings: for pIC50: curve of first compound; for viability, T/C: stronger effect = lower value
Summary of the method: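 Patient-derived tumor cells grown as complex spheroids with HUVEC endothelial cells and mesenchymal stem cells, treated with drug combinations. Concentrations descend in half-log steps from near clinical Cmax, or from 10 microM if Cmax unknown.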
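Also: spheroids exposed to drugs for 7 days before readout.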
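For viability, T/C in this document: 100% = DMSO vehicle control wells.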

In the case of `COc1c(OCCCN2CCOCC2)ccc2c3n(c(=NC(=O)c4cnc(N)nc4)nc12)CCN3` + CNC(=O)c1ccc(Nc2nc(OC3CCCC3)c3c(-c4ccc5nc(C)oc5c4)c[nH]c3n2)c(OC)c1, the pIC50 (second compound 0.0316 µM) was 7.64, the pIC50 (second compound 0.1 µM) was > 8.50 and the pIC50 (second compound 0.316 µM) was > 8.50. For the same molecule, the pIC50 (second compound 1 µM) was > 8.50, the pIC50 (second compound 3.16 µM) was > 8.50 and the pIC50 (second compound 10 µM) was > 8.50. For the same molecule, the viability, T/C (second compound 0.0316 µM, first compound 0.00316 µM) was 63.1%, the viability, T/C (second compound 0.0316 µM, first compound 0.01 µM) was 67.3% and the viability, T/C (second compound 0.0316 µM, first compound 0.0316 µM) was 43.5%. It also gave a viability, T/C (second compound 0.0316 µM, first compound 0.1 µM) of 22.6%, a viability, T/C (second compound 0.0316 µM, first compound 0.316 µM) of 15.8% and a viability, T/C (second compound 0.0316 µM, first compound 1 µM) of 18%. The viability, T/C (second compound 0.1 µM, first compound 0.00316 µM) was 45.5%, the viability, T/C (second compound 0.1 µM, first compound 0.01 µM) was 35.1% and the viability, T/C (second compound 0.1 µM, first compound 0.0316 µM) was 25.3%. For the same molecule, the viability, T/C (second compound 0.1 µM, first compound 0.1 µM) was 16.6%, the viability, T/C (second compound 0.1 µM, first compound 0.316 µM) was 16.6% and the viability, T/C (second compound 0.1 µM, first compound 1 µM) was 18.4%. It also gave a viability, T/C (second compound 0.316 µM, first compound 0.00316 µM) of 37.4%, a viability, T/C (second compound 0.316 µM, first compound 0.01 µM) of 32.6% and a viability, T/C (second compound 0.316 µM, first compound 0.0316 µM) of 22.6%. For the same molecule, the viability, T/C (second compound 0.316 µM, first compound 0.1 µM) was 18.1%, the viability, T/C (second compound 0.316 µM, first compound 0.316 µM) was 13.4% and the viability, T/C (second compound 0.316 µM, first compound 1 µM) was 14.9%. It also gave a viability, T/C (second compound 1 µM, first compound 0.00316 µM) of 29.2%, a viability, T/C (second compound 1 µM, first compound 0.01 µM) of 22.1% and a viability, T/C (second compound 1 µM, first compound 0.0316 µM) of 18.4%. For the same molecule, the viability, T/C (second compound 1 µM, first compound 0.1 µM) was 13.6%, the viability, T/C (second compound 1 µM, first compound 0.316 µM) was 12% and the viability, T/C (second compound 1 µM, first compound 1 µM) was 12.6%. The viability, T/C (second compound 3.16 µM, first compound 0.00316 µM) was 22.1%, the viability, T/C (second compound 3.16 µM, first compound 0.01 µM) was 17% and the viability, T/C (second compound 3.16 µM, first compound 0.0316 µM) was 12.5%. The viability, T/C (second compound 3.16 µM, first compound 0.1 µM) was 9.46%, the viability, T/C (second compound 3.16 µM, first compound 0.316 µM) was 9.04% and the viability, T/C (second compound 3.16 µM, first compound 1 µM) was 7.24%. For the same molecule, the viability, T/C (second compound 10 µM, first compound 0.00316 µM) was 17.3%, the viability, T/C (second compound 10 µM, first compound 0.01 µM) was 16.9% and the viability, T/C (second compound 10 µM, first compound 0.0316 µM) was 13.3%. The viability, T/C (second compound 10 µM, first compound 0.1 µM) was 9.74%, the viability, T/C (second compound 10 µM, first compound 0.316 µM) was 6.96% and the viability, T/C (second compound 10 µM, first compound 1 µM) was 6.64%.
`NC(=O)C(=Cn1cnc(-c2cc(C(F)(F)F)cc(C(F)(F)F)c2)n1)c1cncnc1` + CNC(=O)c1ccc(Nc2nc(OC3CCCC3)c3c(-c4ccc5nc(C)oc5c4)c[nH]c3n2)c(OC)c1 was tested, and the pIC50 (second compound 0.0316 µM) was 7.71, the pIC50 (second compound 0.1 µM) was > 8.02 and the pIC50 (second compound 0.316 µM) was > 8.02. The pIC50 (second compound 1 µM) was > 8.02, the pIC50 (second compound 3.16 µM) was > 8.02 and the pIC50 (second compound 10 µM) was > 8.02. The viability, T/C (second compound 0.0316 µM, first compound 0.00949 µM) was 52.2%, the viability, T/C (second compound 0.0316 µM, first compound 0.03 µM) was 49.7% and the viability, T/C (second compound 0.0316 µM, first compound 0.0949 µM) was 35.9%. It also gave a viability, T/C (second compound 0.0316 µM, first compound 0.3 µM) of 25%, a viability, T/C (second compound 0.0316 µM, first compound 0.949 µM) of 9.87% and a viability, T/C (second compound 0.0316 µM, first compound 3 µM) of 8.36%. For the same molecule, the viability, T/C (second compound 0.1 µM, first compound 0.00949 µM) was 37.7%, the viability, T/C (second compound 0.1 µM, first compound 0.03 µM) was 34.3% and the viability, T/C (second compound 0.1 µM, first compound 0.0949 µM) was 27.8%. For the same molecule, the viability, T/C (second compound 0.1 µM, first compound 0.3 µM) was 19.4%, the viability, T/C (second compound 0.1 µM, first compound 0.949 µM) was 8.19% and the viability, T/C (second compound 0.1 µM, first compound 3 µM) was 5.57%. The viability, T/C (second compound 0.316 µM, first compound 0.00949 µM) was 35.7%, the viability, T/C (second compound 0.316 µM, first compound 0.03 µM) was 24.1% and the viability, T/C (second compound 0.316 µM, first compound 0.0949 µM) was 21.8%. It also gave a viability, T/C (second compound 0.316 µM, first compound 0.3 µM) of 14.3%, a viability, T/C (second compound 0.316 µM, first compound 0.949 µM) of 4.08% and a viability, T/C (second compound 0.316 µM, first compound 3 µM) of 1.39%. For the same molecule, the viability, T/C (second compound 1 µM, first compound 0.00949 µM) was 24.4%, the viability, T/C (second compound 1 µM, first compound 0.03 µM) was 21.2% and the viability, T/C (second compound 1 µM, first compound 0.0949 µM) was 15.8%. It also gave a viability, T/C (second compound 1 µM, first compound 0.3 µM) of 6.44%, a viability, T/C (second compound 1 µM, first compound 0.949 µM) of 2.52% and a viability, T/C (second compound 1 µM, first compound 3 µM) of 1.7%. For the same molecule, the viability, T/C (second compound 3.16 µM, first compound 0.00949 µM) was 19.2%, the viability, T/C (second compound 3.16 µM, first compound 0.03 µM) was 13.5% and the viability, T/C (second compound 3.16 µM, first compound 0.0949 µM) was 6.99%. It also gave a viability, T/C (second compound 3.16 µM, first compound 0.3 µM) of 2.31%, a viability, T/C (second compound 3.16 µM, first compound 0.949 µM) of 2.53% and a viability, T/C (second compound 3.16 µM, first compound 3 µM) of 1.98%. It also gave a viability, T/C (second compound 10 µM, first compound 0.00949 µM) of 17.8%, a viability, T/C (second compound 10 µM, first compound 0.03 µM) of 13.8% and a viability, T/C (second compound 10 µM, first compound 0.0949 µM) of 5.85%. For the same molecule, the viability, T/C (second compound 10 µM, first compound 0.3 µM) was 1.75%, the viability, T/C (second compound 10 µM, first compound 0.949 µM) was 1.16% and the viability, T/C (second compound 10 µM, first compound 3 µM) was 0.58%.
